Test results published in the NIST ThermoML archive (doi:10.1021/acs.jced.8b00008).

Assay: xn = mol fraction of the nth substance listed
Conditions: for viscosity / speed of sound / mass density: 102 kPa, Liquid; for viscosity: Concentric cylinders viscometry; for speed of sound: Single path-length method; for mass density: Vibrating tube method; for surface tension liquid-gas: Pendant drop shape

CCC1CCCCC1 [ethylcyclohexane] + CCCCCCCCCCCC
Conditions	mass density [kg/m3]	speed of sound [m/s]	surface tension liquid-gas [mN/m]	viscosity [mPa·s]
293.15 K, x1 = 0.1	751.13	1296.6	–	1.43
293.15 K, x1 = 0.216	754.22	1295.2	–	1.34
293.15 K, x1 = 0.2999	756.65	1294.3	–	1.3
293.15 K, x1 = 0.4	759.77	1293.4	–	1.22
293.15 K, x1 = 0.5	763.3	1292.4	–	1.16
293.15 K, x1 = 0.5999	767.13	1291.8	–	1.13
293.15 K, x1 = 0.7	771.4	1291.3	–	1.07
293.15 K, x1 = 0.8	776.25	1291.2	–	0.998
293.15 K, x1 = 0.9	781.76	1291.7	–	0.932
294 K, x1 = 0.216	–	–	25.1	–
294 K, x1 = 0.2999	–	–	25.1	–
294 K, x1 = 0.4	–	–	25.1	–
294 K, x1 = 0.5	–	–	25.1	–
294 K, x1 = 0.5999	–	–	25.2	–
294 K, x1 = 0.8	–	–	25.2	–
303.15 K, x1 = 0.1	743.84	1257.8	–	1.2
303.15 K, x1 = 0.216	746.88	1256.6	–	1.15
303.15 K, x1 = 0.2999	749.28	1255.1	–	1.1
303.15 K, x1 = 0.4	752.35	1254	–	1.04
303.15 K, x1 = 0.5	755.8	1253.1	–	0.966
303.15 K, x1 = 0.5999	759.56	1251.7	–	0.934
303.15 K, x1 = 0.7	763.73	1250.7	–	0.887
303.15 K, x1 = 0.8	768.48	1250	–	0.832
303.15 K, x1 = 0.9	773.85	1249.7	–	0.782
313.15 K, x1 = 0.1	736.53	1219.8	–	1.02
313.15 K, x1 = 0.216	739.51	1218.6	–	0.973
313.15 K, x1 = 0.2999	741.87	1216.7	–	0.939
313.15 K, x1 = 0.4	744.89	1215.3	–	0.899
313.15 K, x1 = 0.5	748.26	1214.3	–	0.876
313.15 K, x1 = 0.5999	751.95	1212.4	–	0.85
313.15 K, x1 = 0.7	756.03	1210.9	–	0.789
313.15 K, x1 = 0.8	760.66	1209.6	–	0.743
313.15 K, x1 = 0.9	765.89	1208.6	–	0.698
323.15 K, x1 = 0.1	729.18	1182.5	–	0.893
323.15 K, x1 = 0.216	732.1	1181.1	–	0.858
323.15 K, x1 = 0.2999	734.42	1179	–	0.823
323.15 K, x1 = 0.4	737.38	1177.4	–	0.79
323.15 K, x1 = 0.5	740.68	1176.1	–	0.759
323.15 K, x1 = 0.5999	744.29	1173.8	–	0.718
323.15 K, x1 = 0.7	748.27	1171.9	–	0.686
323.15 K, x1 = 0.8	752.78	1170	–	0.646
323.15 K, x1 = 0.9	757.88	1168.3	–	0.614
333.15 K, x1 = 0.1	721.79	1146.2	–	0.769
333.15 K, x1 = 0.216	724.65	1144.3	–	0.757
333.15 K, x1 = 0.2999	726.93	1142.1	–	0.713
333.15 K, x1 = 0.4	729.83	1140.5	–	0.685
333.15 K, x1 = 0.5	733.05	1138.6	–	0.667
333.15 K, x1 = 0.5999	736.58	1136.2	–	0.627
333.15 K, x1 = 0.7	740.46	1133.9	–	0.601
333.15 K, x1 = 0.8	744.85	1131.3	–	0.567
333.15 K, x1 = 0.9	749.79	1128.9	–	0.537

CC1CCCCC1 [methylcyclohexane] + CCCCCCCCCCCC
Conditions	mass density [kg/m3]	speed of sound [m/s]	surface tension liquid-gas [mN/m]	viscosity [mPa·s]
293 K, x1 = 0.1	–	–	24.86	–
293 K, x1 = 0.2001	–	–	24.84	–
293 K, x1 = 0.3	–	–	24.76	–
293 K, x1 = 0.4001	–	–	24.73	–
293 K, x1 = 0.5	–	–	24.5	–
293 K, x1 = 0.5999	–	–	24.34	–
293 K, x1 = 0.7	–	–	24.25	–
293 K, x1 = 0.7999	–	–	24.11	–
293 K, x1 = 0.9	–	–	23.95	–
293.15 K, x1 = 0.1	749.76	1293.1	–	1.41
293.15 K, x1 = 0.2001	750.92	1288.3	–	1.34
293.15 K, x1 = 0.3	752.24	1283.1	–	1.26
293.15 K, x1 = 0.4001	753.73	1277.5	–	1.18
293.15 K, x1 = 0.5	755.42	1271.7	–	1.11
293.15 K, x1 = 0.5999	757.37	1265.3	–	1.03
293.15 K, x1 = 0.7	759.54	1258.9	–	0.95
293.15 K, x1 = 0.7999	762.21	1251.8	–	0.875
293.15 K, x1 = 0.9	765.42	1244.3	–	0.798
298.15 K, x1 = 0.1	746.11	1273.6	–	1.29
298.15 K, x1 = 0.2001	747.24	1268.7	–	1.23
298.15 K, x1 = 0.3	748.53	1263.4	–	1.16
298.15 K, x1 = 0.4001	749.97	1257.7	–	1.09
298.15 K, x1 = 0.5	751.63	1251.7	–	1.04
298.15 K, x1 = 0.5999	753.5	1245	–	0.968
298.15 K, x1 = 0.7	755.59	1238.2	–	0.898
298.15 K, x1 = 0.7999	758.17	1230.8	–	0.828
298.15 K, x1 = 0.9	761.26	1222.7	–	0.755
303.15 K, x1 = 0.1	742.46	1254.3	–	1.2
303.15 K, x1 = 0.2001	743.56	1249.3	–	1.14
303.15 K, x1 = 0.3	744.81	1243.9	–	1.08
303.15 K, x1 = 0.4001	746.21	1238	–	1.02
303.15 K, x1 = 0.5	747.8	1231.9	–	0.959
303.15 K, x1 = 0.5999	749.62	1224.8	–	0.889
303.15 K, x1 = 0.7	751.64	1217.8	–	0.826
303.15 K, x1 = 0.7999	754.12	1209.9	–	0.762
303.15 K, x1 = 0.9	757.08	1201.4	–	0.696
313.15 K, x1 = 0.1	735.13	1216.3	–	1.01
313.15 K, x1 = 0.2001	736.17	1211.1	–	0.965
313.15 K, x1 = 0.3	737.34	1205.4	–	0.916
313.15 K, x1 = 0.4001	738.65	1199.2	–	0.871
313.15 K, x1 = 0.5	740.13	1192.9	–	0.858
313.15 K, x1 = 0.5999	741.83	1185.2	–	0.8
313.15 K, x1 = 0.7	743.69	1177.6	–	0.744
313.15 K, x1 = 0.7999	745.98	1169	–	0.689
313.15 K, x1 = 0.9	748.69	1159.5	–	0.63
323.15 K, x1 = 0.1	727.76	1178.9	–	0.892
323.15 K, x1 = 0.2001	728.74	1173.5	–	0.852
323.15 K, x1 = 0.3	729.83	1167.6	–	0.813
323.15 K, x1 = 0.4001	731.05	1161.1	–	0.774
323.15 K, x1 = 0.5	732.41	1154.4	–	0.732
323.15 K, x1 = 0.5999	733.97	1146.3	–	0.681
323.15 K, x1 = 0.7	735.69	1138.2	–	0.634
323.15 K, x1 = 0.7999	737.77	1128.8	–	0.589
323.15 K, x1 = 0.9	740.22	1118.3	–	0.538
333.15 K, x1 = 0.1	720.35	1142.5	–	0.783
333.15 K, x1 = 0.2001	721.26	1137	–	0.752
333.15 K, x1 = 0.3	722.26	1130.7	–	0.716
333.15 K, x1 = 0.4001	723.38	1124	–	0.692
333.15 K, x1 = 0.5	724.63	1116.6	–	0.641
333.15 K, x1 = 0.5999	726.06	1108.3	–	0.606
333.15 K, x1 = 0.7	727.61	1099.9	–	0.564
333.15 K, x1 = 0.7999	729.48	1089.6	–	0.527
333.15 K, x1 = 0.9	731.68	1078.2	–	0.48
